Reference: US20060089378A1 (priority 2004, published 2006)
Like-named read-outs stand apart in the source and are kept apart here.

Legend:
Cannabinoid CB1 Receptor = target: T1, Cannabinoid CB1 Receptor (Homo sapiens, UniProt P21554); assay: Binding assay for CB1 agonists or inverse agonists (radioligand competition, membranes of transfected SK-N-MC cells)
T1 construct: expressed in transfected cells

Cannabinoid CB2 Receptor = target: T2, Cannabinoid CB2 Receptor (Homo sapiens, UniProt P34972); assay: Binding assay for CB2 agonists or inverse agonists (radioligand competition, membranes of transfected SK-N-MC cells); settings: read-out: Cannabinoid CB2 Receptor Binding percent inhibition
T2 construct: expressed in transfected cells

CB1 receptor (human) = CB1 receptor (human) (Homo sapiens, UniProt P21554); assay: cell-based
CB1 receptor (human), sequence (P21554 whole entry): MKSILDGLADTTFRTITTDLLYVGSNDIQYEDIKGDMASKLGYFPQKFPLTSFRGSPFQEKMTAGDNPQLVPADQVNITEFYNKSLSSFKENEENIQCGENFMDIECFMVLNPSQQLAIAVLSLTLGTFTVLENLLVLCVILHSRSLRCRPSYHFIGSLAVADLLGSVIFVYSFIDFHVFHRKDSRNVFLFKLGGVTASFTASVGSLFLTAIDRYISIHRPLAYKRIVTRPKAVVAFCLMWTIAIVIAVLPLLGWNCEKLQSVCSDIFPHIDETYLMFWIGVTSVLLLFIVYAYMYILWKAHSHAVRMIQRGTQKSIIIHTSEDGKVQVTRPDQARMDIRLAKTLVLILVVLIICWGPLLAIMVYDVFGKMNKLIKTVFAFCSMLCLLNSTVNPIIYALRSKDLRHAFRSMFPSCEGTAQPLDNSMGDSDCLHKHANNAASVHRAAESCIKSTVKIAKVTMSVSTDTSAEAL

T2 sequence (P34972 whole entry): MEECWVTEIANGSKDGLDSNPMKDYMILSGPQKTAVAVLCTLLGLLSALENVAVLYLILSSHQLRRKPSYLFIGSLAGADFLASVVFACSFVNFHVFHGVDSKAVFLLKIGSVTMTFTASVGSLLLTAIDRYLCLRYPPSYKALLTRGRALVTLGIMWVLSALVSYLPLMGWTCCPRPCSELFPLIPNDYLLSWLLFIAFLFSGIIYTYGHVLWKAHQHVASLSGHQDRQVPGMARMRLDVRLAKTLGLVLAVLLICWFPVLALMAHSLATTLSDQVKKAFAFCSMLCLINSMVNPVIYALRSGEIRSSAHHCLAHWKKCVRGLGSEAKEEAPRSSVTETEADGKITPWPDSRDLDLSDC
T1 sequence (P21554 whole entry): as the sequence (P21554 whole entry) above

| SMILES | IC50 (Cannabinoid CB1 Receptor) | inhibition at 0.2 µM (Cannabinoid CB2 Receptor) | EC50 (CB1 receptor (human)) | inhibition at 0.2 µM (Cannabinoid CB2 Receptor; test concentration of 0.2 μM, compounds without an IC50 binding value) | inhibition at 0.2 µM (Cannabinoid CB1 Receptor; read-out: Cannabinoid CB1 Receptor Binding percent inhibition) |
| --- | --- | --- | --- | --- | --- |
| COc1ccc(/C=C2\CN(S(=O)(=O)N(C)C)Cc3c(C(=O)NC(C)c4ccccn4)nn(-c4ccc(Cl)cc4Cl)c32)cc1 (stereo not drawn) [Cpd 64, (7E)-1-(2,4-dichloro-phenyl)-5-dimethylsulfamoyl-7-(4-methoxy-benzylidene)-4,5,6,7-tetrahydro-1H-pyrazolo[4,3-c]pyridine-3-carboxylic acid (1-pyridin-2-yl-ethyl)-amide] | 6 nM | 62% | 1 nM |  |  |
| CCOC(=O)CN1C/C(=C\c2ccc(OC)cc2)c2c(c(C(=O)NC(C)c3ccccn3)nn2-c2ccc(Cl)cc2Cl)C1 (stereo not drawn) [Cpd 65, (7E)-[1-(2,4-dichloro-phenyl)-7-(4-methoxy-benzylidene)-3-(1-pyridin-2-yl-ethylcarbamoyl)-1,4,6,7-tetrahydro-pyrazolo[4,3-c]pyridin-5-yl]-acetic acid ethyl ester] | 10 nM | 39% | 9 nM |  |  |
| C[C@@H](NC(=O)c1nn(-c2ccc(Cl)cc2)c2c1CNC/C2=C\c1ccc(F)cc1)c1ccccc1 [Cpd 66, (7E)-1-(4-chloro-phenyl)-7-(4-fluoro-benzylidene)-4,5,6,7-tetrahydro-1H-pyrazolo[4,3-c]pyridine-3-carboxylic acid [(1R)-1-phenyl-ethyl]-amide] | 20 nM |  | 10 nM | 5% |  |
| COC(=O)N1C/C(=C\c2ccc(F)cc2)c2c(c(C(=O)N[C@H](C)c3ccccc3)nn2-c2ccc(Cl)cc2)C1 [Cpd 67, (7E)-1-(4-chloro-phenyl)-7-(4-fluoro-benzylidene)-3-[(1R)-1-phenyl-ethylcarbamoyl]-1,4,6,7-tetrahydro-pyrazolo[4,3-c]pyridine-5-carboxylic acid methyl ester] | 5 nM | 19% | 1 nM |  |  |
| CC(=O)N1C/C(=C\c2ccc(F)cc2)c2c(c(C(=O)N[C@H](C)c3ccccc3)nn2-c2ccc(Cl)cc2)C1 [Cpd 68, (7E)-5-acetyl-1-(4-chloro-phenyl)-7-(4-fluoro-benzylidene)-4,5,6,7-tetrahydro-1H-pyrazolo[4,3-c]pyridine-3-carboxylic acid [(1R)-1-phenyl-ethyl]-amide] | 20 nM | 11% | 3 nM |  |  |
| CCNC(=O)N1C/C(=C\c2ccc(F)cc2)c2c(c(C(=O)N[C@H](C)c3ccccc3)nn2-c2ccc(Cl)cc2)C1 [Cpd 69, (7E)-1-(4-chloro-phenyl)-7-(4-fluoro-benzylidene)-1,4,6,7-tetrahydro-pyrazolo[4,3-c]pyridine-3,5-dicarboxylic acid 5-ethylamide 3-{[(1R)-1-phenyl-ethyl]-amide}] | 30 nM | 0% | 5 nM |  |  |
| C[C@@H](NC(=O)c1nn(-c2ccc(Cl)cc2)c2c1CN(S(=O)(=O)N(C)C)C/C2=C\c1ccc(F)cc1)c1ccccc1 [Cpd 70, (7E)-1-(4-chloro-phenyl)-5-dimethylsulfamoyl-7-(4-fluoro-benzylidene)-4,5,6,7-tetrahydro-1H-pyrazolo[4,3-c]pyridine-3-carboxylic acid [(1R)-1-phenyl-ethyl]-amide] | 9 nM | 13% | 1 nM |  |  |
| C[C@@H](NC(=O)c1nn(-c2ccc(Cl)cc2)c2c1CN(S(C)(=O)=O)C/C2=C\c1ccc(F)cc1)c1ccccc1 [Cpd 71, (7E)-1-(4-chloro-phenyl)-7-(4-fluoro-benzylidene)-5-methanesulfonyl-4,5,6,7-tetrahydro-1H-pyrazolo[4,3-c]pyridine-3-carboxylic acid [(1R)-1-phenyl-ethyl]-amide] | 4 nM | 3% | 1 nM |  |  |
| CCOC(=O)CN1C/C(=C\c2ccc(F)cc2)c2c(c(C(=O)N[C@H](C)c3ccccc3)nn2-c2ccc(Cl)cc2)C1 [Cpd 72, (7E)-[1-(4-chloro-phenyl)-7-(4-fluoro-benzylidene)-3-[(1R)-1-phenyl-ethylcarbamoyl]-1,4,6,7-tetrahydro-pyrazolo[4,3-c]pyridin-5-yl]-acetic acid ethyl ester] | 10 nM | 17% | 5 nM |  |  |
| CC(NC(=O)c1nn(-c2ccc(Cl)cc2)c2c1CNC/C2=C\c1ccc(F)cc1)c1ccccn1 (stereo not drawn) [Cpd 75, (7E)-1-(4-chloro-phenyl)-7-(4-fluoro-benzylidene)-4,5,6,7-tetrahydro-1H-pyrazolo[4,3-c]pyridine-3-carboxylic acid (1-pyridin-2-yl-ethyl)-amide] | 200 nM | 0% | 40 nM |  |  |
| O=C(NN1CCCCC1)c1nn(-c2ccc(Cl)cc2)c2c1CNC/C2=C\c1ccc(F)cc1 [Cpd 76, (7E)-1-(4-chloro-phenyl)-7-(4-fluoro-benzylidene)-4,5,6,7-tetrahydro-1H-pyrazolo[4,3-c]pyridine-3-carboxylic acid piperidin-1-ylamide] |  | 0% | 30 nM |  | 48% |
| CCNC(=O)N1C/C(=C\c2ccc(F)cc2)c2c(c(C(=O)NC(C)c3ccccn3)nn2-c2ccc(Cl)cc2)C1 (stereo not drawn) [Cpd 77, (7E)-1-(4-chloro-phenyl)-7-(4-fluoro-benzylidene)-1,4,6,7-tetrahydro-pyrazolo[4,3-c]pyridine-3,5-dicarboxylic acid 5-ethylamide 3-[(1-pyridin-2-yl-ethyl)-amide]] | 80 nM | 0% | 10 nM |  |  |
| COC(=O)N1C/C(=C\c2ccc(F)cc2)c2c(c(C(=O)NC(C)c3ccccn3)nn2-c2ccc(Cl)cc2)C1 (stereo not drawn) [Cpd 79, (7E)-1-(4-chloro-phenyl)-7-(4-fluoro-benzylidene)-3-(1-pyridin-2-yl-ethylcarbamoyl)-1,4,6,7-tetrahydro-pyrazolo[4,3-c]pyridine-5-carboxylic acid methyl ester] | 10 nM | 13% | 3 nM |  |  |
| CC(=O)N1C/C(=C\c2ccc(F)cc2)c2c(c(C(=O)NC(C)c3ccccn3)nn2-c2ccc(Cl)cc2)C1 (stereo not drawn) [Cpd 80, (7E)-5-acetyl-1-(4-chloro-phenyl)-7-(4-fluoro-benzylidene)-4,5,6,7-tetrahydro-1H-pyrazolo[4,3-c]pyridine-3-carboxylic acid (1-pyridin-2-yl-ethyl)-amide] | 100 nM | 0% | 9 nM |  |  |
| COC(=O)N1C/C(=C\c2ccc(F)cc2)c2c(c(C(=O)NN3CC4CCCC4C3)nn2-c2ccc(Cl)cc2)C1 (stereo not drawn) [Cpd 87, (7E)-1-(4-chloro-phenyl)-7-(4-fluoro-benzylidene)-3-(hexahydro-cyclopenta[c]pyrrol-2-ylcarbamoyl)-1,4,6,7-tetrahydro-pyrazolo[4,3-c]pyridine-5-carboxylic acid methyl ester] | 50 nM | 16% | 1 nM |  |  |
| COc1ccc(/C=C2\CN(C(=O)OC(C)(C)C)Cc3c(C(=O)N[C@H](C)c4ccccn4)nn(-c4ccc(Cl)cc4Cl)c32)cc1 [Cpd 89, (7E)-1-(2,4-dichloro-phenyl)-7-(4-methoxy-benzylidene)-3-[(1R)-1-pyridin-2-yl-ethylcarbamoyl]-1,4,6,7-tetrahydro-pyrazolo[4,3-c]pyridine-5-carboxylic acid tert-butyl ester] | 20 nM | 27% | 5 nM |  |  |
| O=C(NN1CC2CCCC2C1)c1nn(-c2ccc(Cl)cc2Cl)c2c1CNC/C2=C\c1ccc(F)cc1 (stereo not drawn) [Cpd 90, (7E)-1-(2,4-dichloro-phenyl)-7-(4-fluoro-benzylidene)-4,5,6,7-tetrahydro-1H-pyrazolo[4,3-c]pyridine-3-carboxylic acid (hexahydro-cyclopenta[c]pyrrol-2-yl)-amide] | 30 nM | 15% | 8 nM |  |  |
| CC(=O)N1C/C(=C\c2ccc(F)cc2)c2c(c(C(=O)NN3CC4CCCC4C3)nn2-c2ccc(Cl)cc2Cl)C1 (stereo not drawn) [Cpd 91, (7E)-5-acetyl-1-(2,4-dichloro-phenyl)-7-(4-fluoro-benzylidene)-4,5,6,7-tetrahydro-1H-pyrazolo[4,3-c]pyridine-3-carboxylic acid (hexahydro-cyclopenta[c]pyrrol-2-yl)-amide] | 50 nM | 14% | 3 nM |  |  |
| COC(=O)N1C/C(=C\c2ccc(F)cc2)c2c(c(C(=O)NN3CC4CCCC4C3)nn2-c2ccc(Cl)cc2Cl)C1 (stereo not drawn) [Cpd 92, (7E)-1-(2,4-dichloro-phenyl)-7-(4-fluoro-benzylidene)-3-(hexahydro-cyclopenta[c]pyrrol-2-ylcarbamoyl)-1,4,6,7-tetrahydro-pyrazolo[4,3-c]pyridinc-5-carboxylic acid methyl ester] | 20 nM | 4% | 2 nM |  |  |
| COc1ccc(/C=C2\CNCc3c(C(=O)N[C@H](C)c4ccccn4)nn(-c4ccc(Cl)cc4Cl)c32)cc1 [Cpd 93, (7E)-1-(2,4-dichloro-phenyl)-7-(4-methoxy-benzylidene)-4,5,6,7-tetrahydro-1H-pyrazolo[4,3-c]pyridine-3-carboxylic acid [(1R)-1-pyridin-2-yl-ethyl]-amide] | 30 nM | 7% | 8 nM |  |  |
| COc1ccc(/C=C2\CNCc3c(C(=O)NN4CC5CCCC5C4)nn(-c4ccc(Cl)cc4Cl)c32)cc1 (stereo not drawn) [Cpd 95, (7E)-1-(2,4-dichloro-phenyl)-7-(4-methoxy-benzylidene)-4,5,6,7-tetrahydro-1H-pyrazolo[4,3-c]pyridine-3-carboxylic acid (hexahydro-cyclopenta[c]pyrrol-2-yl)-amide] | 80 nM | 20% | 9 nM |  |  |
| COC(=O)N1C/C(=C\c2ccc(OC)cc2)c2c(c(C(=O)N[C@H](C)c3ccccn3)nn2-c2ccc(Cl)cc2Cl)C1 [Cpd 96, (7E)-1-(2,4-dichloro-phenyl)-7-(4-methoxy-benzylidene)-3-[(1R)-1-pyridin-2-yl-ethylcarbamoyl]-1,4,6,7-tetrahydro-pyrazolo[4,3-c]pyridine-5-carboxylic acid methyl ester] | 3 nM | 56% | 1 nM |  |  |
